CC(C)(C)NSc1nc2ccccc2s1
solubility (mole fraction)
Settings | 273.2 K | 278.2 K | 283.2 K | 288.2 K | 293.2 K | 298.2 K | 303.2 K | 308.2 K | 313.2 K
in ethanol | 0.00951 | 0.0111 | 0.0133 | 0.0157 | 0.0198 | 0.0236 | 0.0278 | 0.0344 | 0.0419
in isopropanol | 0.00844 | 0.00938 | 0.0122 | 0.015 | 0.0176 | 0.0208 | 0.025 | 0.0298 | 0.0352
in methanol | 0.00591 | 0.00707 | 0.00834 | 0.00991 | 0.0123 | 0.0148 | 0.0178 | 0.0219 | 0.0266
in n-butanol | 0.0177 | 0.0202 | 0.0237 | 0.028 | – | 0.0375 | 0.0444 | 0.0524 | 0.061
in tert-butylamine | 0.0952 | 0.107 | 0.115 | 0.124 | 0.135 | 0.149 | 0.165 | 0.176 | 0.198
in toluene | 0.0273 | 0.0355 | 0.0422 | 0.0518 | 0.0605 | 0.0691 | 0.084 | 0.102 | 0.122

— BigSolDB 2.1
